Results: ChEMBL document CHEMBL1201862, “PubChem BioAssay data set” (2004)
One block for each compound: values may come before it. Calls of active or inactive are those of the source.

Columns and labels:
[1] = T. cruzi infection blockers in NIH3T3 cells – beta-gal luminescence, NIH3T3 host cells, confirmation (AID 2630); assay type: functional, cell-based; details: Mus musculus
Trypanosoma cruzi = assay: anti-trypanosomal activity in host cells – cell-based, plate reader, dry powder, set 3, dose response (AID 493197); assay type: functional
Cannabinoid receptor 2 [2] = molecular target: T1, Cannabinoid receptor 2 (Homo sapiens, UniProt P34972); assay: SAR analysis of antagonists of the Cannabinoid Receptor 2 using an Image-Based Assay. [Related pubchem assays (depositor defined):AID2013, AID2026]; assay type: functional
[3] = molecular target: T2, G-protein coupled receptor 35 (Homo sapiens, UniProt Q9HC97); assay: SAR analysis of Agonists of the GPR35 Receptor using an Image-Based Assay - Set 2. [Related pubchem assays (depositor defined):AID2013, AID2026]; assay type: functional
Cannabinoid receptor 1 [4] = molecular target: T3, Cannabinoid receptor 1 (Homo sapiens, UniProt P21554); assay: SAR analysis of agonists of the Cannabinoid Receptor 1 using an Image-Based Assay - Set 2. [Related pubchem assays (depositor defined):AID2013, AID2026]; assay type: functional
[5] = molecular target: G-protein coupled receptor 55 (Homo sapiens, UniProt Q9Y2T6); assay: inhibition of LPI-stimulated GPR55 beta-arrestin translocation – imaging, U2OS, beta-arrestin-GFP, LPI agonist, primary screen (AID 2013); assay type: functional;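 also: antagonist potency measured as reduced agonist-driven arrestin aggregation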
[6] = molecular target: T2, G-protein coupled receptor 35; assay: SAR analysis of Antagonists of the GPR35 Receptor using an Image-Based Assay - Set 3. [Related pubchem assays (depositor defined):AID2013, AID2026]; assay type: functional
Cannabinoid receptor 1 [7] = molecular target: T3, Cannabinoid receptor 1; assay: SAR analysis of antagonists of the Cannabinoid Receptor 1 using an Image-Based Assay - Set 2. [Related pubchem assays (depositor defined):AID2013, AID2026]; assay type: functional
Cannabinoid receptor 2 [8] = molecular target: T1, Cannabinoid receptor 2; assay: SAR analysis of agonists of the Cannabinoid Receptor 2 using an Image-Based Assay. [Related pubchem assays (depositor defined):AID2013, AID2026]; assay type: functional
Beta-galactosidase = Beta-galactosidase (Escherichia coli, UniProt Q8VNN2); assay type: functional
[9] = molecular target: T4, Kappa-type opioid receptor (Homo sapiens, UniProt P41145); assay type: functional
[10] = molecular target: Voltage-dependent T-type calcium channel subunit alpha-1H (Homo sapiens, UniProt O95180); assay type: functional;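 also: channel activity triggered by adding a high calcium stimulation buffer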
[11] = molecular target: T4, Kappa-type opioid receptor; assay type: functional; remark: listed apart in the source
Vero [12] = assay: antiviral protection of cells from WNV – synthesized analogs, SAR follow-up (AID 2238); assay type: functional, cell-based; details: Chlorocebus sabaeus
Vero [13] = assay: Vero 76 cell viability after compound exposure – Vero 76 cells, synthesized analogs, cytotoxicity control for West Nile virus antiviral project, SAR follow-up (AID 2414); assay type: functional; details: Chlorocebus sabaeus
Vero [14] = assay: inhibition of WNV-induced cytopathic effect – cell-based, CPE readout (AID 1621); assay type: functional; details: Chlorocebus sabaeus
Vero [15] = assay: Vero cell viability after compound exposure – synthesized analogs, set II, cytotoxicity control for West Nile virus antiviral project, SAR follow-up (AID 2402); assay type: functional; details: Chlorocebus sabaeus
Vero [16] = assay: host cell viability loss, Vero E6 – synthesized analogs, cytotoxicity control for West Nile virus antiviral project, SAR follow-up (AID 2244); assay type: functional; details: Chlorocebus sabaeus
INS1 = assay: INS-1E survival protection against cytokine death – cell-based, luminescence, retest, dose response (AID 449756); assay type: functional; details: Rattus norvegicus;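 also: cell death triggered by IL-1 beta plus TNF-alpha plus IFN-gamma mixture; protective hits raise ATP signal compared with cytokine alone wells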
[17] = molecular target: T5, Runt-related transcription factor 1/Core-binding factor subunit beta (Homo sapiens, UniProt Q01196+Q13951); assay: disruptors of Runt domain/CBFb-SMMHC interaction – biochemical, FRET, Cerulean-Runt, Venus-CBFb-SMMHC, uHTS, […] (AID 1434); assay type: protein assay
[18] = molecular target: T5, Runt-related transcription factor 1/Core-binding factor subunit beta; assay: Runt domain/CBFb-SMMHC interaction disruptors – biochemical, TR-FRET (AID 1438); assay type: protein assay
Vero [19] = assay: viability of Vero cells under compound – cytotoxicity control for flavivirus capping enzyme inhibitors (AID 588742); assay type: functional; details: Chlorocebus sabaeus
[20] = molecular target: T5, Runt-related transcription factor 1/Core-binding factor subunit beta; assay: Confirmation of compounds inhibiting the binding between the RUNX1 Runt domain and CBFb-SMMHC via a fluorescence resonance energy transfer (FRET) assay. [Related pubchem assays (depositor defined):AID1434, AID1438, AID1496, AID1550, AID1645]; assay type: protein assay
[21] = molecular target: T5, Runt-related transcription factor 1/Core-binding factor subunit beta; assay: Confirmation of compounds inhibiting the binding between the RUNX1 Runt domain and CBFb-SMMHC via a time resolved fluorescence resonance energy transfer (TR-FRET) assay. [Related pubchem assays (depositor defined):AID1434, AID1438, AID1496, AID1560, AID1645]; assay type: protein assay
[22] = toxicity toward cultured mammalian cells – cell-based, plate reader, cherry-pick samples, cytotoxicity control, dose response (AID 504397); assay type: functional

T5 sequence (Q01196 whole entry, the tested form may be a part): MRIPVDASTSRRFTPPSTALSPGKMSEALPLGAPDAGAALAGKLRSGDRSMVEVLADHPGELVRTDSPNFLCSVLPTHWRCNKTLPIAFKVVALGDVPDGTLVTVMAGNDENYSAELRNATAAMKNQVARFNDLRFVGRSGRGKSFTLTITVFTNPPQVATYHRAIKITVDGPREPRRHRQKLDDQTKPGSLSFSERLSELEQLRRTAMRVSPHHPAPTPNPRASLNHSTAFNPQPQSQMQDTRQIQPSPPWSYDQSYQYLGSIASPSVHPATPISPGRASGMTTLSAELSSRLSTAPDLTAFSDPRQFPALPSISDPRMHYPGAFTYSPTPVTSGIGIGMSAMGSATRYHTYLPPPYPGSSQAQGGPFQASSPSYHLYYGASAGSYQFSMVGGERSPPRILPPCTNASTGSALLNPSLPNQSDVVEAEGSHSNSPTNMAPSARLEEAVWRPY
T5 sequence (Q13951 whole entry, the tested form may be a part): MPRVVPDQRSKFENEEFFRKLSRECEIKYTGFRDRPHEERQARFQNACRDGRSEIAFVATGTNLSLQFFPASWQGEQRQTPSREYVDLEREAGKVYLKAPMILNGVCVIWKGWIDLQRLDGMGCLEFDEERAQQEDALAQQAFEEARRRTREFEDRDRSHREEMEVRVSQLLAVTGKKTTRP
T1 sequence (P34972 whole entry): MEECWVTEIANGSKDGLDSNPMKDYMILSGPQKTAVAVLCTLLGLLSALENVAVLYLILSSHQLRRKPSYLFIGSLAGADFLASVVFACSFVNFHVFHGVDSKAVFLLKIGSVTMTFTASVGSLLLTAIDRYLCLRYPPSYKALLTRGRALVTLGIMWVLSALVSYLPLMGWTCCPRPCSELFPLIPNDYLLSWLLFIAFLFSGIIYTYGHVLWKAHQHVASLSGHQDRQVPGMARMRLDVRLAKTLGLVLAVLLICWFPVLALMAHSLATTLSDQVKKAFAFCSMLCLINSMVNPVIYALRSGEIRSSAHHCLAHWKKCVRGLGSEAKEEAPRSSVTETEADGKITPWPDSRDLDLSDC
T2 sequence (Q9HC97 whole entry): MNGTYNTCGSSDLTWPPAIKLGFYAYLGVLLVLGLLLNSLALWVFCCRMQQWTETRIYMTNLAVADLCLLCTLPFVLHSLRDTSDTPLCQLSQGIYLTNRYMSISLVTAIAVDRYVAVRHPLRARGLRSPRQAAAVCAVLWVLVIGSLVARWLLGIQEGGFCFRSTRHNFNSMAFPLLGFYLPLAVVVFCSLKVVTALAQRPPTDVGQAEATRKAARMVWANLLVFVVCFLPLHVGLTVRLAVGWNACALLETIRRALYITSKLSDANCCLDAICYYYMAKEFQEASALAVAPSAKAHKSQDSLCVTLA
T3 sequence (P21554 whole entry): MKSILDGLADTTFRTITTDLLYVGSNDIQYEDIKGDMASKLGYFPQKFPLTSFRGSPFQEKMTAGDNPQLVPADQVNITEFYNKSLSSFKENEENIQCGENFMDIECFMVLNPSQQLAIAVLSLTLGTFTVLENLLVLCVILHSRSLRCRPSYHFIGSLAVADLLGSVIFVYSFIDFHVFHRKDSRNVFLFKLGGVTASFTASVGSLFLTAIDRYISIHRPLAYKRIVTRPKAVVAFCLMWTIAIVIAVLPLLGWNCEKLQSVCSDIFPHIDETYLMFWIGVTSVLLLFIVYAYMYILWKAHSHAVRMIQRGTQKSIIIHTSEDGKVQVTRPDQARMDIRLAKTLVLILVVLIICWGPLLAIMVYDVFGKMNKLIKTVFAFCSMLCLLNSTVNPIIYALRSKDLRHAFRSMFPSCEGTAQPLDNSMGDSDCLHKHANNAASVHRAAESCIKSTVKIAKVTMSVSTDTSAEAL
T4 sequence (P41145 whole entry): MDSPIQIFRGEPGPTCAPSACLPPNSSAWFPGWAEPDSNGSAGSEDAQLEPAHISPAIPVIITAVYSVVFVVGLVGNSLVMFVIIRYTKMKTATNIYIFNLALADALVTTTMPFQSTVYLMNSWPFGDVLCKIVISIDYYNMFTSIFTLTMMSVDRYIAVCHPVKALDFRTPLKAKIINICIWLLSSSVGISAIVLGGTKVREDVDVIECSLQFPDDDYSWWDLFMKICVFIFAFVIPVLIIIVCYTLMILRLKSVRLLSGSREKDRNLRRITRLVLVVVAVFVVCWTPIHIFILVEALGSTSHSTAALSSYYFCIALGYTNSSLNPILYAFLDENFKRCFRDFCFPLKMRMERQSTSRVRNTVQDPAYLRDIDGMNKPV
Voltage-dependent T-type calcium channel subunit alpha-1H, sequence (O95180 whole entry): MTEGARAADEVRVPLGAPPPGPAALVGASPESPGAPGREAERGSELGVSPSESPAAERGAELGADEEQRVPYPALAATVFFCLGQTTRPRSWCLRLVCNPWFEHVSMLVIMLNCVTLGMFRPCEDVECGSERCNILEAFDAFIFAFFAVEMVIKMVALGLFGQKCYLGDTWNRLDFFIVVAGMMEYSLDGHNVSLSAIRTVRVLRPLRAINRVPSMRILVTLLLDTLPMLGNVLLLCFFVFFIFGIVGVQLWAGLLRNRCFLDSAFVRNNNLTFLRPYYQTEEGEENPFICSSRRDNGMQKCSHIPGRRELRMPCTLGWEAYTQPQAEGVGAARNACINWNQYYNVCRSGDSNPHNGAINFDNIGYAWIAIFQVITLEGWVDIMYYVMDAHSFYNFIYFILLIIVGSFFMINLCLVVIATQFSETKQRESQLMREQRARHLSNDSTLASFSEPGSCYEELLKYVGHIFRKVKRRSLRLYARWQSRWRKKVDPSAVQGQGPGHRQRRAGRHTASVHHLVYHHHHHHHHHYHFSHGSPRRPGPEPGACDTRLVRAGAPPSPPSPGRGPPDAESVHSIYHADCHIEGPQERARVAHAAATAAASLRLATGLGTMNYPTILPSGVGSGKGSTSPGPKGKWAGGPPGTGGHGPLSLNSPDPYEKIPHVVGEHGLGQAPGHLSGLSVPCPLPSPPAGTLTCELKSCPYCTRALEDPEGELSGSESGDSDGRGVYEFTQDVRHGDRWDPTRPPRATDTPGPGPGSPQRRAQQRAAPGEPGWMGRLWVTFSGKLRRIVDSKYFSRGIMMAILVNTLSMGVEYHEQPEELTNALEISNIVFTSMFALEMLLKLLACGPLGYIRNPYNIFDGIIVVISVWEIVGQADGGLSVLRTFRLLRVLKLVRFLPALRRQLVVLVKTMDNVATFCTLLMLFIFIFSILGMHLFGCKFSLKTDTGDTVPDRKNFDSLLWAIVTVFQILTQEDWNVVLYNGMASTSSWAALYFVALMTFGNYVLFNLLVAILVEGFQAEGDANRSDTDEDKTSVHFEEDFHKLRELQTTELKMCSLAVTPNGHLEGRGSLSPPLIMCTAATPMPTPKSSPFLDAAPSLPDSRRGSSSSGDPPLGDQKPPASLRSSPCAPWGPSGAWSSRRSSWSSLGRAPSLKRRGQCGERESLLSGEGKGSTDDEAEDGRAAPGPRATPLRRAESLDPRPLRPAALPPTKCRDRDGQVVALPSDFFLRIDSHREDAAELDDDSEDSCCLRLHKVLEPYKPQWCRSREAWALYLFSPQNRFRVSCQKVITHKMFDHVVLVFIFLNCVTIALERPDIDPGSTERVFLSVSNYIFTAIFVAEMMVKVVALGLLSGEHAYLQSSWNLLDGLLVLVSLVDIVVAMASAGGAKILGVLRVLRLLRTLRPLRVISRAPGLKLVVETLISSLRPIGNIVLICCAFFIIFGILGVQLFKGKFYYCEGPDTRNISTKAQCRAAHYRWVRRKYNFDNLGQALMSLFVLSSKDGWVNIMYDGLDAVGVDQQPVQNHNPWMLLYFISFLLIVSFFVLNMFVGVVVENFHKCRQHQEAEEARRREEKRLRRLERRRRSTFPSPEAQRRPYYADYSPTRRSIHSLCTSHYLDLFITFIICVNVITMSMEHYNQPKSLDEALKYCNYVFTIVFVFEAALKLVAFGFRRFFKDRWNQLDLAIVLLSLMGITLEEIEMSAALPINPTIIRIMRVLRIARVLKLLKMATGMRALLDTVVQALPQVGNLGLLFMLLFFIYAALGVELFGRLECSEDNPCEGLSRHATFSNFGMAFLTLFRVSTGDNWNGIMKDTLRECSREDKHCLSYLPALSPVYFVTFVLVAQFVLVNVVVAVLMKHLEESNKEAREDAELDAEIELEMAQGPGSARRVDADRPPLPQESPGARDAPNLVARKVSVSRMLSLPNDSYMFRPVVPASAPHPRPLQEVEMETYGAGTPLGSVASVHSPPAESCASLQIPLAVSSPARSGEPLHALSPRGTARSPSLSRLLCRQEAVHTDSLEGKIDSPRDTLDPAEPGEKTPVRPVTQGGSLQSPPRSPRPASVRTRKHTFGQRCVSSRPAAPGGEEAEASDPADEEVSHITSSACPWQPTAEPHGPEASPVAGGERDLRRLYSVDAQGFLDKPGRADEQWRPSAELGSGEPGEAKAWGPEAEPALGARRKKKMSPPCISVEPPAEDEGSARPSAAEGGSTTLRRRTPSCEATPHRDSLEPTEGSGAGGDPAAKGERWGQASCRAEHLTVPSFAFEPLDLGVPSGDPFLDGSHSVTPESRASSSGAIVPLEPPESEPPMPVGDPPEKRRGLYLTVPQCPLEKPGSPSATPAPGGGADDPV
G-protein coupled receptor 55, sequence (Q9Y2T6 whole entry): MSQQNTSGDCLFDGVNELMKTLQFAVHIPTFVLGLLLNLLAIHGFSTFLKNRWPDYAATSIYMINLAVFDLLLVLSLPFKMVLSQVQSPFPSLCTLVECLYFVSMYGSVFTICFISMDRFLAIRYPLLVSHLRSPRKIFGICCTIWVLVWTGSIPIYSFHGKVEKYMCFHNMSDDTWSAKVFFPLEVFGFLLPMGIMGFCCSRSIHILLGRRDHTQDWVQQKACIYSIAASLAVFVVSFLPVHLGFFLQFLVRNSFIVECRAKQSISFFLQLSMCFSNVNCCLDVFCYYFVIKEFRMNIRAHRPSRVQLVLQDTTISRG

SMILES: CCN(CC)C(=O)C1CCCN(Cc2cccc(Cl)c2)C1 (stereo not given)
EC50 [1]: 1.33 µM (active)
AC50 (Trypanosoma cruzi): 9.91 µM (active)

IC50 (Cannabinoid receptor 2 [2]): > 32 µM (inactive)
EC50 [3]: > 32 µM (inactive)
EC50 (Cannabinoid receptor 1 [4]): > 32 µM (inactive)
IC50 [5]: 4.28 µM (active)
IC50 [6]: > 32 µM (inactive)
IC50 (Cannabinoid receptor 1 [7]): 17.7 µM (inactive)
EC50 (Cannabinoid receptor 2 [8]): > 32 µM (inactive)
SMILES: Cc1ccc(C2(C(=O)N3CCC(n4nc(-c5ccccc5)oc4=O)CC3)CC2)cc1

EC50 (Beta-galactosidase): > 31.5 µM (inactive)
IC50 [9]: > 31.5 µM (inactive)
EC50 [10]: 4.73 µM (active)
IC50 [11]: > 32 µM
SMILES: O=C(C1CCCN(S(=O)(=O)Cc2ccccc2)C1)N1CCC(Cc2ccccc2)CC1 (stereo not given)

SMILES: O=C(CSc1nc2ccccc2c(=O)n1-c1ccc(F)cc1)Nc1ccc2c(c1)CCC2
IC50 (Vero [12]): 24.5 µM (active)
CC50 (Vero [13]): > 133 µM (active)
IC50 (Vero [14]): 20.6 µM (active)
CC50 (Vero [15]): > 200 µM (active)
CC50 (Vero [16]): > 80 µM (active)

SMILES: O=C(c1cccnc1)N(c1cc2sc(=O)oc2c2ccccc12)S(=O)(=O)c1ccccc1
AC50 (INS1): 6.65 µM (active)
IC50 [17]: > 100 µM (inactive)
IC50 [18]: > 100 µM (inactive)
CC50 (Vero [19]): > 40 µM (active)
IC50 [20]: > 100 µM (inactive)
IC50 [21]: > 100 µM (inactive)

SMILES: C=CCn1c(SCc2ccc(C#N)cc2)nnc1-c1ccc(C)cc1
AC50 [22]: 98.3 µM (active)
